Some test systems named below: ACHN; BT-549; CAKI-1; COLO 205; HCT-15; LOX IMVI; MCF7; NCI-H226; NCI-H522; NCI/ADR-RES; OVCAR-8; PC-3; RXF 393; SF-268; SNB-19; SNB-75; SR; T47D; UACC-257; HCC 2998.
Common to all, as to experiment: NCI anticancer screen, dose series, 48 h

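Growth conditions: 96-well plates. Treatment: test compound, 48 hours, 5 concentrations. Analysis: linear interpolation between bracketing concentrations; unreached endpoints set to highest concentration. GI50 is the concentration that inhibits growth by half.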 The source made the active and inactive calls. No stated cut-off is given here; in the data, active = GI50 up to about 1.1 µM and inactive = higher.

In the case of `O=C1NC(=O)C(c2c[nH]c3ccccc23)=C1c1cnc[nH]1`, the GI50 with ACHN was > 100 µM (inactive); in the experiment with BT-549, 46.3 µM (inactive); with CAKI-1, > 100 µM (inactive); with COLO 205 it was 49.5 µM (inactive); with HCT-15, more than 100 µM; with LOX IMVI, 59 µM (inactive). The GI50 in the experiment with MCF7 is 34.5 µM (inactive); with NCI-H226 it was 1.79 µM (inactive); in the experiment on NCI-H522, 56.8 µM (inactive); in the experiment on NCI/ADR-RES, > 100 µM (inactive); with OVCAR-8 it was > 100 µM (inactive); in the experiment on PC-3, > 100 µM (inactive). In addition, the GI50 in the experiment on RXF 393 is > 100 µM (inactive); in the experiment with SF-268 it was > 100 µM (inactive); in the experiment with SNB-19, > 100 µM (inactive); in the experiment with SNB-75, > 100 µM (inactive); in the experiment on SR, 23.6 µM (inactive); in the experiment on T47D, > 100 µM (inactive). In addition, the GI50 in the experiment on UACC-257 was > 100 µM (inactive).

For the compound `CC1(C)CC(O)CC(C)(C)N1O` [TEMPOL HYDROXYLAMINE], the GI50 with ACHN was > 100 µM (inactive); in the experiment with BT-549, > 100 µM (inactive); in the experiment on CAKI-1 it was > 100 µM (inactive); with COLO 205 it was > 100 µM (inactive); with HCC 2998, > 100 µM (inactive); in the experiment with HCT-15, more than 100 µM. For the same compound, the GI50 in the experiment with MCF7, in the experiment with NCI/ADR-RES, with OVCAR-8, with PC-3, with RXF 393 and with SF-268 was > 100 µM (inactive) in each case. In addition, the GI50 in the experiment on SNB-19, in the experiment with SNB-75, with SR, in the experiment on T47D and in the experiment on UACC-257 was > 100 µM (inactive) throughout.

Turning to `Cc1c(NC(=O)Nc2c(Cl)cccc2Cl)c(=O)n(-c2ccccc2)n1C`, the GI50 was > 100 µM (inactive) in the experiment on ACHN; > 100 µM (inactive) in the experiment with BT-549; > 100 µM (inactive) in the experiment on CAKI-1; > 100 µM (inactive) in the experiment on COLO 205; more than 100 µM in the experiment on HCT-15; > 100 µM (inactive) with LOX IMVI. For the same compound, the GI50 in the experiment on MCF7, in the experiment on NCI-H226, with NCI-H522, in the experiment on NCI/ADR-RES, in the experiment with OVCAR-8 and with PC-3 was > 100 µM (inactive) throughout. The GI50 in the experiment with RXF 393, in the experiment with SF-268, with SNB-19, with SNB-75, with SR and in the experiment with T47D was > 100 µM (inactive) each time. Moreover, the GI50 with UACC-257 is > 100 µM (inactive).

For `COc1ccccc1C[C@@H]1OC2(C=CC(=O)C=C2)O[C@H]1Cc1ccccc1OC`, the GI50 in the experiment with ACHN was 7.89 µM (inactive); in the experiment with BT-549 it was 2.64 µM (inactive); in the experiment with CAKI-1, 10.3 µM (inactive); with COLO 205, 8.11 µM (inactive); with HCT-15, 5.21 µM; in the experiment on LOX IMVI, 6.14 µM (inactive). For the same compound, the GI50 with MCF7 is 3.96 µM (inactive); in the experiment with NCI-H226, 8.47 µM (inactive); in the experiment on NCI/ADR-RES, 8.38 µM (inactive); in the experiment with OVCAR-8 it was 1.27 µM (inactive); in the experiment with PC-3 it was 8.69 µM (inactive); in the experiment with RXF 393, 1.16 µM (inactive). The GI50 is 7.35 µM (inactive) in the experiment on SF-268; 9.95 µM (inactive) in the experiment with SNB-19; 9.04 µM (inactive) in the experiment on SNB-75; 1.78 µM (inactive) with SR; 19.2 µM (inactive) in the experiment on T47D; 8.11 µM (inactive) in the experiment with UACC-257.

With `CC1(C)C(C#N)C1C1=C(N2CCOCC2)[C@]2(C)C(OC(=O)c3ccccc3)CC[C@@H]2C1` (stereo not given in full), the GI50 with ACHN was > 100 µM (inactive); in the experiment with BT-549 it was 55.1 µM (inactive); in the experiment with CAKI-1 it was > 100 µM (inactive); with COLO 205, 95.3 µM (inactive); with HCC 2998, > 100 µM (inactive); in the experiment with HCT-15, more than 100 µM. The GI50 was 72.6 µM (inactive) in the experiment with MCF7; > 100 µM (inactive) in the experiment on NCI-H226; > 100 µM (inactive) in the experiment on NCI-H522; > 100 µM (inactive) in the experiment with NCI/ADR-RES; > 100 µM (inactive) in the experiment on OVCAR-8; > 100 µM (inactive) with PC-3. For the same compound, the GI50 in the experiment on RXF 393 is 35.6 µM (inactive); in the experiment with SF-268, > 100 µM (inactive); in the experiment on SNB-19 it was > 100 µM (inactive); in the experiment with SNB-75 it was 20.5 µM (inactive); in the experiment with SR, 61.5 µM (inactive); in the experiment on T47D, 35.5 µM (inactive). Besides, the GI50 with UACC-257 is > 100 µM (inactive).

For the compound `CSc1ncc2c(n1)-c1ccccc1OC2`, the GI50 in the experiment on ACHN is 45.9 µM (inactive); in the experiment on BT-549, 43 µM (inactive); in the experiment on CAKI-1, 19.4 µM (inactive); in the experiment on COLO 205, 92.3 µM (inactive); with HCT-15, 51.2 µM; with LOX IMVI, 37.7 µM (inactive). The GI50 in the experiment with MCF7 was 43.1 µM (inactive); in the experiment with NCI-H226, 67 µM (inactive); in the experiment with NCI-H522 it was 44.5 µM (inactive); in the experiment with NCI/ADR-RES it was 71.3 µM (inactive); with OVCAR-8 it was 79.1 µM (inactive); in the experiment with PC-3, 56.4 µM (inactive). Moreover, the GI50 in the experiment on RXF 393 was 41.5 µM (inactive); with SF-268, 49.4 µM (inactive); with SNB-19, 75.9 µM (inactive); with SNB-75, 43.6 µM (inactive); with SR, 61 µM (inactive); with T47D, 15.9 µM (inactive). Also, the GI50 in the experiment with UACC-257 is > 100 µM (inactive).

With `Nc1ccc(-c2nc3cc(F)ccc3s2)cc1`, the GI50 is 20.6 µM (inactive) in the experiment on ACHN; > 100 µM (inactive) with BT-549; 27.7 µM (inactive) in the experiment on CAKI-1; 61 µM (inactive) in the experiment with COLO 205; 26.3 µM (inactive) with HCC 2998; 17.6 µM in the experiment on HCT-15. For the same compound, the GI50 was 45.1 µM (inactive) with LOX IMVI; < 0.01 µM (active) with MCF7; 53.5 µM (inactive) with NCI-H522; > 100 µM (inactive) in the experiment with NCI/ADR-RES; > 95.9 µM (inactive) in the experiment with OVCAR-8; 16.5 µM (inactive) with PC-3. For the same compound, the GI50 in the experiment with RXF 393 was 32.3 µM (inactive); in the experiment with SF-268, 31 µM (inactive); with SNB-19, > 100 µM (inactive); with SNB-75, 11.2 µM (inactive); with SR, 5.96 µM (inactive); in the experiment on T47D it was 0.424 µM (active). The GI50 with UACC-257 is > 43.4 µM (inactive).

For `N=C(N)SCc1nc(-c2ccc(Cl)cc2)no1`, the GI50 in the experiment on ACHN is 13.3 µM (inactive); with BT-549 it was 23.2 µM (inactive); in the experiment with CAKI-1, 14 µM (inactive); with COLO 205 it was 14.6 µM (inactive); with HCT-15, 11.2 µM; in the experiment on LOX IMVI it was 14.7 µM (inactive). For the same compound, the GI50 in the experiment with MCF7 is 12.9 µM (inactive); with NCI-H226, > 100 µM (inactive); with NCI-H522, 10.6 µM (inactive); in the experiment on NCI/ADR-RES it was 27.9 µM (inactive); in the experiment with OVCAR-8 it was 30.1 µM (inactive); in the experiment with PC-3 it was 14 µM (inactive). The GI50 with RXF 393 is 12.1 µM (inactive); in the experiment on SF-268 it was 19.3 µM (inactive); in the experiment with SNB-19 it was 38.2 µM (inactive); in the experiment on SNB-75, 23.1 µM (inactive); with SR, 4.48 µM (inactive); with T47D, 11.3 µM (inactive). The GI50 with UACC-257 was 30.5 µM (inactive).

With `COc1ccc(Nc2nc3ccccc3nc2C(=O)O)cc1`, the GI50 in the experiment with ACHN is 55 µM (inactive); in the experiment with BT-549, > 100 µM (inactive); in the experiment with CAKI-1, 46.6 µM (inactive); in the experiment on COLO 205 it was 37.7 µM (inactive); in the experiment on HCC 2998, 3.46 µM (inactive); with HCT-15, 36.1 µM. Moreover, the GI50 in the experiment with LOX IMVI is 60.1 µM (inactive); in the experiment with MCF7, > 100 µM (inactive); in the experiment with NCI-H522, 92 µM (inactive); with NCI/ADR-RES, 38.9 µM (inactive); in the experiment on OVCAR-8, 71.3 µM (inactive); in the experiment with PC-3 it was > 100 µM (inactive). The GI50 with RXF 393 was > 100 µM (inactive); with SF-268 it was 61.1 µM (inactive); in the experiment on SNB-19 it was > 100 µM (inactive); in the experiment on SNB-75, 59.7 µM (inactive); in the experiment on SR it was 48.6 µM (inactive); with T47D, 53.6 µM (inactive). For the same compound, the GI50 in the experiment on UACC-257 is > 100 µM (inactive).

On to `CC1(c2ccc(Cl)cc2)C=C(c2ccc(Cl)cc2)C(C#N)=C(C(C#N)C#N)N1.CNC` (stereo not given), for which the GI50 was 16.6 µM (inactive) in the experiment on ACHN; 21.2 µM (inactive) in the experiment on BT-549; 16.9 µM (inactive) with CAKI-1; 14.5 µM (inactive) with COLO 205; 16.3 µM (inactive) with HCC 2998; 15.1 µM in the experiment on HCT-15. For the same compound, the GI50 with LOX IMVI was 17 µM (inactive); in the experiment with MCF7, 16.6 µM (inactive); in the experiment on NCI-H226, 19.8 µM (inactive); in the experiment on NCI/ADR-RES it was 17.9 µM (inactive); in the experiment on OVCAR-8, 14.5 µM (inactive); with PC-3 it was 16.6 µM (inactive). The GI50 with RXF 393 is 18.7 µM (inactive); in the experiment with SF-268, 10.7 µM (inactive); in the experiment with SNB-19, 18.2 µM (inactive); with SNB-75, 18.8 µM (inactive); with SR, 15.7 µM (inactive); in the experiment on T47D it was 14.2 µM (inactive). The GI50 in the experiment with UACC-257 is 17.5 µM (inactive).

`O=C1C(Nc2ccccc2)=CC2=NCCc3n[nH]c1c32`: the GI50 in the experiment with ACHN is 55.6 µM (inactive); in the experiment on BT-549, 40.8 µM (inactive); in the experiment with CAKI-1, 72.6 µM (inactive); in the experiment on COLO 205 it was 33.1 µM (inactive); with HCC 2998 it was 34.8 µM (inactive); in the experiment on HCT-15 it was 19.8 µM. The GI50 in the experiment with LOX IMVI is 13.9 µM (inactive); with MCF7, 26.7 µM (inactive); in the experiment with NCI-H522, 32.5 µM (inactive); in the experiment on NCI/ADR-RES it was 28.6 µM (inactive); in the experiment with OVCAR-8 it was 21 µM (inactive); with PC-3, 33.1 µM (inactive). For the same compound, the GI50 is > 100 µM (inactive) in the experiment on RXF 393; 65.2 µM (inactive) in the experiment with SF-268; 63.8 µM (inactive) in the experiment on SNB-19; > 100 µM (inactive) in the experiment on SNB-75; 25.2 µM (inactive) in the experiment on SR; 34.4 µM (inactive) with T47D.

These data come from ChEMBL document CHEMBL1201862, “PubChem BioAssay data set” (2004).
